Literature values in patent US9119775B2, “Use of pilocarpine for hypoptyalism treatment” (priority 2004, dated 2015).

Tests used:
salivary glands [1] = system: salivary glands
salivary glands [2] = details: according to the known pharmacokinetic studies

**Q.** With `CC[C@@H]1C(=O)OC[C@@H]1Cc1cncn1C` [pilocarpine] as the compound, how does the “delay of first action of the pilocarpine after intake” value (salivary glands [1]; oral method, after intake) read?
**A.** Its value is 0.45 to 1 h.

**Q.** What about the undesirable secondary effects (salivary glands [1]; oral tablets, 15 mg per day up to 30 mg per day, conducted over several weeks) of the same compound?
**A.** Its undesirable secondary effects is “nausea, excessive sweating, sensations of dizziness, hot flashes or asthenias”.

**Q.** What about the “duration of the effects of stimulation” value (salivary glands [2]) of the same compound?
**A.** Its value is 4 to 8 h.
